Source: paper PMC10044725, “Antioxidant, Anti-Inflammatory and Anti-Diabetic Activities of Tectona grandis Methanolic Extracts, Fractions, and Isolated Compounds” (Antioxidants, 2023)
Marks after values point to notes of the source that are not given here.

Key:
IL-1β = IL-1β secretion in LPS-stimulated RAW 264.7 macrophages (ELISA); format: cell-based, mouse; conditions: 40 µM, LPS 1 µg/mL, 48 h, vs model control (p < 0.0001)
Experimental: (§1) In order to increase cytokine production, macrophages were treated with LPS at a final concentration of 1 µg/mL, and then with T. grandis compounds at 40 µM. The compounds were solubilized in DMEM medium containing 0.1% DMSO. Dexamethasone was employed as a positive control (5 µg/mL). A centrifuge was used to separate the supernatant from the cells after 48 h of incubation, with three replicates per group. Quantification of TNF-α, IL-1β and IL-6 secretion was achieved by following the ELISA manufacturer's instructions. Then, absorbance was measured at 450 nm. Relative TNF-α, IL-1β and IL-6 expression was calculated according to Equation (4). Following the inflammatory factor test, cell viability was detected by CellTiter96® Aqueous One Solution Cell Proliferation Assay. Then, 20 μL/well CellTiter96® Aqueous One Solution Cell Growth Assay reagent was added to the plate and incubated at 37 °C for 8 h, absorbance was measured at […] and relative cell viability was calculated according to Equation (5). Relative content of inflammatory cytokines (%) = (A1/A2)/A3 × 100%(4) where A1 is the concentrations value of inflammatory cytokines of each group, A2 is the relative cell viability of each group (model group is 100) and A3 is the concentration of inflammatory cytokines of model group. Cell viability rate (%) = B1/B2 × 100%(5) where B1 is the OD value of each fraction group or positive control group and B2 is the OD value of the model control.

3T3-L1 adipocytes = assay: Glucose uptake assay in 3T3-L1 adipocytes; format: cell-based, mouse; conditions: compounds at 40 µM, 48 h (Figure 11A(b))
Experimental: Mouse 3T3-L1 preadipocyte cells were maintained in DMEM supplemented with 10% NBCS and 1% P/S at 37 °C in a humidified environment with 5% CO2, and then began starvation when the cells grew to 80% confluence (day 0). To facilitate differentiation to adipocytes, 2-days post-confluent cells were placed in 10% FBS DMEM supplemented with 1% P/S, 0.5 mM IBMX, 1 μM Dex, 1 μM Rosi and 100 nM insulin (day 2). For another three days (day 5), the medium was changed to high glucose DMEM containing 10% FBS, 1% P/S and 100 nM insulin for one day (day 6), and the 3T3-L1 preadipocytes were fully differentiated into mature adipocytes.
Next, differentiated 3T3-L1 adipocytes at a density of 5 × 10^4 cells/well were cultured with DMEM in 96-well plates and divided into the blank control group, model group, insulin group (100 ng/mL), berberine group (10 μg/mL) and compound groups (40 μM). […] After 24 and 48 h of culture, glucose uptake was initiated by the addition of […] medium and 190 μL glucose detection reagent to each well, reaction at 37 °C for 15 min, and the glucose uptake was measured according to the operating instructions of the glucose content determination kit. Following the glucose uptake test, cell viability was detected by CellTiter96® Aqueous One Solution Cell Proliferation Assay. […] Absorbance was measured at 490 nm and relative cell viability was calculated according to Equation (7). […]

pBR322 DNA = assay: Prevention of AAPH-induced DNA oxidative damage; conditions: AAPH 20 mM; p < 0.0001 vs model
Experimental: The effects of T. grandis methanolic extract, different fractions and its compounds 15, 19 and 23 on the prevention of DNA oxidative damage were carried out using the method of Han et al.. Initially, 8 μL pBR322 DNA (50 μg/mL) in PBS (0.1 M, pH 6.8) was mixed with different concentrations of T. grandis fractions and its compounds (12 μL) and incubated in water at 37 °C for 30 min. Then, 5 μL AAPH (20 mM) was added to the mixture and the reaction continued for 60 min. The control group used the same volume of PBS (0.1 M, pH 6.8) to replace AAPH. The pre-treated samples were mixed with 5 × DNA loading buffer, and the mixture (8 μL) was taken for 1.0% agarose gel electrophoresis for 25 min. After electrophoresis, the gels were stained with ethidium bromide for 20 min. Finally, images were taken using a DNA gel imaging system (ChampChemi 610, Beijing sage creation Co., Ltd. Beijing, China).

α-glucosidase = assay: α-Glucosidase inhibition assay (pNPG); format: biochemical
Experimental: The inhibitory effect on α-glucosidase was measured according to the previous report method with slight modifications. The 20 mM sample dissolved in DMSO was diluted to 50 μM in PBS, 10 μL sample was mixed with 50 μL of 0.1 μ/mL α-glucosidase solution in 0.1 M phosphate buffer (pH 6.5) in a 96-well microplate and 10 μL PBS was used as a blank control. The mixture was incubated at 37 °C for 10 min before adding 40 µL of 5 mM 4-nitrophenyl-α-D-glucopyranoside to each well. After 30 min of incubation at 37 °C, the reaction was terminated by adding 50 μL of 0.1 M Na2CO3 to this mixture. The released 4-nitrophenol absorbance measurements were carried out using a microplate reader (SpectraMax190, USA) at 405 nm.

[1] = ABTS radical cation scavenging assay (Trolox equivalent); conditions: compounds at 50 μM
Experimental: The ABTS radical cation (ABTS•+) scavenging activities were conducted in accordance with the instructions for the ABTS kit. The total antioxidant activity values were estimated using the Trolox equivalent antioxidant capacity test. The detection concentration of methanolic extract and different fractions was 80 μg/mL, and the detection concentration of compounds (1–23) was 50 μM. […] Then, 190 μL of ABTS working reagent was mixed with 10 μL sample and incubated at room temperature for 5 min. The absorbance was then measured using a microplate reader at 734 nm, and the scavenging activity was calculated according to Equation (2). The blank control group used DMSO to replace the sample. […] The analysis was performed in triplicates, 1.424, 0.0012 was a constant.

TNF-α = TNF-α secretion in LPS-stimulated RAW 264.7 macrophages (ELISA); format: cell-based, mouse; conditions: 40 µM, LPS 1 µg/mL, 48 h, vs model control (p < 0.01)
Experimental: as §1

- Inhibitory Rate (%) (α-glucosidase; at a concentration of 50 µM): 21.89 ± 3.03 ^c %
- IC50 (α-glucosidase; compounds): > 50 µM
SMILES: O=C(O)c1cc(O)c(O)c(O)c1 [Compound 23, gallic acid]
- effect on IL-1β inflammatory factor level (IL-1β): significant decrease
- effect on glucose uptake (3T3-L1 adipocytes): significantly promote
- concentration at which a protective effect against DNA oxidative damage begins (pBR322 DNA): 0.6 mM
- ABTS Assay [1]: 0.95 ± 0.02 ^a mmol Trolox/L
- effect on TNF-α inflammatory factor level (TNF-α): could decrease
